Experimental data taken from PMC7156458, “Synthetic biology based construction of biological activity-related library of fungal decalin-containing diterpenoid pyrones” (Nature Communications, 2020).

Target: Aβ42 (Homo sapiens, UniProt P05067)
Test: Th-T (thioflavin-T) assay of Aβ42 aggregation
Type: biochemical
Conditions: for Th-T fluorescence of Aβ42 (sheet Fig. 7a), mean of three wells: head suffix _50 (concentration 50); for Th-T assay plate reading, mean of three wells (Supplementary Fig. 47): source data, Ab alone and No Ab as controls; for Th-T fluorescence, mean of three wells: Supplementary Fig. 47 source data

Sequence of Aβ42 (P05067 672-713): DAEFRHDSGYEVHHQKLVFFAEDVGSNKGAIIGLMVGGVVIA

C=C1CCC2C(C)(CCC=C(C)C)C(O)CCC2(C)C1Cc1c(OC)oc(CO)c(C(=O)OC)c1=O (stereo not drawn) [Compound 13]
Th-T fluorescence of Aβ42 (sheet Fig. 7a), mean of three wells (reading M73): 0.4729
Th-T fluorescence of Aβ42 (sheet Fig. 7a), mean of three wells (reading M74): 0.4696
Th-T fluorescence of Aβ42 (sheet Fig. 7a), mean of three wells (reading M75): 0.4709
Th-T fluorescence of Aβ42 (sheet Fig. 7a), mean of three wells (reading M76): 0.4704
Th-T fluorescence of Aβ42 (sheet Fig. 7a), mean of three wells (reading M77): 0.4733
Th-T fluorescence of Aβ42 (sheet Fig. 7a), mean of three wells (reading M78): 0.4716
Th-T fluorescence of Aβ42 (sheet Fig. 7a), mean of three wells (reading M79): 0.4696
Th-T fluorescence of Aβ42 (sheet Fig. 7a), mean of three wells (reading M80): 0.4702
Th-T fluorescence of Aβ42 (sheet Fig. 7a), mean of three wells (reading M81): 0.4727
Th-T fluorescence of Aβ42 (sheet Fig. 7a), mean of three wells (reading M82): 0.4723
Th-T fluorescence of Aβ42 (sheet Fig. 7a), mean of three wells (reading M83): 0.4714
Th-T fluorescence of Aβ42 (sheet Fig. 7a), mean of three wells (reading M84): 0.4716
Th-T assay plate reading, mean of three wells (Supplementary Fig. 47) (measurement M1): 0.2585
Th-T assay plate reading, mean of three wells (Supplementary Fig. 47) (measurement M2): 0.2393
Th-T assay plate reading, mean of three wells (Supplementary Fig. 47) (measurement M3): 0.2328
Th-T assay plate reading, mean of three wells (Supplementary Fig. 47) (measurement M4): 0.2253
Th-T assay plate reading, mean of three wells (Supplementary Fig. 47) (measurement M5): 0.2121
Th-T assay plate reading, mean of three wells (Supplementary Fig. 47) (measurement M6): 0.2004
Th-T assay plate reading, mean of three wells (Supplementary Fig. 47) (measurement M7): 0.1938
Th-T assay plate reading, mean of three wells (Supplementary Fig. 47) (measurement M8): 0.1852
Th-T assay plate reading, mean of three wells (Supplementary Fig. 47) (measurement M9): 0.1809
Th-T assay plate reading, mean of three wells (Supplementary Fig. 47) (measurement M10): 0.1743
Th-T assay plate reading, mean of three wells (Supplementary Fig. 47) (measurement M11): 0.1726
Th-T assay plate reading, mean of three wells (Supplementary Fig. 47) (measurement M12): 0.1685
Th-T assay plate reading, mean of three wells (Supplementary Fig. 47) (measurement M13): 0.1699
Th-T assay plate reading, mean of three wells (Supplementary Fig. 47) (measurement M14): 0.1695
Th-T assay plate reading, mean of three wells (Supplementary Fig. 47) (measurement M15): 0.1669
Th-T assay plate reading, mean of three wells (Supplementary Fig. 47) (measurement M16): 0.1721
Th-T fluorescence, mean of three wells (Fig. 7a) (reading M107, compound at 10 (head suffix _10)): 1.546
Th-T fluorescence, mean of three wells (Fig. 7a) (reading M107, compound at 20 (head suffix _20)): 1.033
Th-T fluorescence, mean of three wells (Fig. 7a) (reading M107, compound at 50 (head suffix _50)): 0.4755
Th-T fluorescence, mean of three wells (Fig. 7a) (reading M108, compound at 10 (head suffix _10)): 1.544
Th-T fluorescence, mean of three wells (Fig. 7a) (reading M108, compound at 20 (head suffix _20)): 1.036
Th-T fluorescence, mean of three wells (Fig. 7a) (reading M108, compound at 50 (head suffix _50)): 0.4722
Th-T fluorescence, mean of three wells (Fig. 7a) (reading M109, compound at 10 (head suffix _10)): 1.548
Th-T fluorescence, mean of three wells (Fig. 7a) (reading M109, compound at 20 (head suffix _20)): 1.038
Th-T fluorescence, mean of three wells (Fig. 7a) (reading M109, compound at 50 (head suffix _50)): 0.476
Th-T fluorescence, mean of three wells (Fig. 7a) (reading M110, compound at 10 (head suffix _10)): 1.549
Th-T fluorescence, mean of three wells (Fig. 7a) (reading M110, compound at 20 (head suffix _20)): 1.043
Th-T fluorescence, mean of three wells (Fig. 7a) (reading M110, compound at 50 (head suffix _50)): 0.4785
Th-T fluorescence, mean of three wells (Fig. 7a) (reading M111, compound at 10 (head suffix _10)): 1.553
Th-T fluorescence, mean of three wells (Fig. 7a) (reading M111, compound at 20 (head suffix _20)): 1.041
Th-T fluorescence, mean of three wells (Fig. 7a) (reading M111, compound at 50 (head suffix _50)): 0.4751
Th-T fluorescence, mean of three wells (Fig. 7a) (reading M112, compound at 10 (head suffix _10)): 1.549
Th-T fluorescence, mean of three wells (Fig. 7a) (reading M112, compound at 20 (head suffix _20)): 1.035
Th-T fluorescence, mean of three wells (Fig. 7a) (reading M112, compound at 50 (head suffix _50)): 0.4724
Th-T fluorescence, mean of three wells (Fig. 7a) (reading M113, compound at 10 (head suffix _10)): 1.549
Th-T fluorescence, mean of three wells (Fig. 7a) (reading M113, compound at 20 (head suffix _20)): 1.03
Th-T fluorescence, mean of three wells (Fig. 7a) (reading M113, compound at 50 (head suffix _50)): 0.473
Th-T fluorescence, mean of three wells (Fig. 7a) (reading M114, compound at 10 (head suffix _10)): 1.5404
Th-T fluorescence, mean of three wells (Fig. 7a) (reading M114, compound at 20 (head suffix _20)): 1.03
Th-T fluorescence, mean of three wells (Fig. 7a) (reading M114, compound at 50 (head suffix _50)): 0.4728
Th-T fluorescence, mean of three wells (Fig. 7a) (reading M115, compound at 10 (head suffix _10)): 1.549
Th-T fluorescence, mean of three wells (Fig. 7a) (reading M115, compound at 20 (head suffix _20)): 1.033
Th-T fluorescence, mean of three wells (Fig. 7a) (reading M115, compound at 50 (head suffix _50)): 0.477
Th-T fluorescence, mean of three wells (Fig. 7a) (reading M116, compound at 10 (head suffix _10)): 1.546
Th-T fluorescence, mean of three wells (Fig. 7a) (reading M116, compound at 20 (head suffix _20)): 1.033
Th-T fluorescence, mean of three wells (Fig. 7a) (reading M116, compound at 50 (head suffix _50)): 0.4778
Th-T fluorescence, mean of three wells (Fig. 7a) (reading M117, compound at 10 (head suffix _10)): 1.5424
Th-T fluorescence, mean of three wells (Fig. 7a) (reading M117, compound at 20 (head suffix _20)): 1.029
Th-T fluorescence, mean of three wells (Fig. 7a) (reading M117, compound at 50 (head suffix _50)): 0.4747
Th-T fluorescence, mean of three wells (Fig. 7a) (reading M118, compound at 10 (head suffix _10)): 1.549
Th-T fluorescence, mean of three wells (Fig. 7a) (reading M118, compound at 20 (head suffix _20)): 1.031
Th-T fluorescence, mean of three wells (Fig. 7a) (reading M118, compound at 50 (head suffix _50)): 0.4759
Th-T fluorescence, mean of three wells (Fig. 7a) (reading M119, compound at 10 (head suffix _10)): 1.551
Th-T fluorescence, mean of three wells (Fig. 7a) (reading M119, compound at 20 (head suffix _20)): 1.035
Th-T fluorescence, mean of three wells (Fig. 7a) (reading M119, compound at 50 (head suffix _50)): 0.4763
Th-T fluorescence, mean of three wells (Fig. 7a) (reading M120, compound at 10 (head suffix _10)): 1.5465
Th-T fluorescence, mean of three wells (Fig. 7a) (reading M120, compound at 20 (head suffix _20)): 1.04
Th-T fluorescence, mean of three wells (Fig. 7a) (reading M120, compound at 50 (head suffix _50)): 0.4773
Th-T fluorescence, mean of three wells (Fig. 7a) (reading M121, compound at 10 (head suffix _10)): 1.546
Th-T fluorescence, mean of three wells (Fig. 7a) (reading M121, compound at 20 (head suffix _20)): 1.029
Th-T fluorescence, mean of three wells (Fig. 7a) (reading M121, compound at 50 (head suffix _50)): 0.4753
Th-T fluorescence, mean of three wells (Fig. 7a) (reading M122, compound at 10 (head suffix _10)): 1.544
Th-T fluorescence, mean of three wells (Fig. 7a) (reading M122, compound at 20 (head suffix _20)): 1.028
Th-T fluorescence, mean of three wells (Fig. 7a) (reading M122, compound at 50 (head suffix _50)): 0.4755
Th-T fluorescence, mean of three wells (Fig. 7a) (reading M123, compound at 10 (head suffix _10)): 1.5409
Th-T fluorescence, mean of three wells (Fig. 7a) (reading M123, compound at 20 (head suffix _20)): 1.032
Th-T fluorescence, mean of three wells (Fig. 7a) (reading M123, compound at 50 (head suffix _50)): 0.4791
Th-T fluorescence, mean of three wells (Fig. 7a) (reading M124, compound at 10 (head suffix _10)): 1.548
Th-T fluorescence, mean of three wells (Fig. 7a) (reading M124, compound at 20 (head suffix _20)): 1.037
Th-T fluorescence, mean of three wells (Fig. 7a) (reading M124, compound at 50 (head suffix _50)): 0.4785
Th-T fluorescence, mean of three wells (Fig. 7a) (reading M125, compound at 10 (head suffix _10)): 1.541
Th-T fluorescence, mean of three wells (Fig. 7a) (reading M125, compound at 20 (head suffix _20)): 1.031
Th-T fluorescence, mean of three wells (Fig. 7a) (reading M125, compound at 50 (head suffix _50)): 0.4776
Th-T fluorescence, mean of three wells (Fig. 7a) (reading M126, compound at 10 (head suffix _10)): 1.541
Th-T fluorescence, mean of three wells (Fig. 7a) (reading M126, compound at 20 (head suffix _20)): 1.031
Th-T fluorescence, mean of three wells (Fig. 7a) (reading M126, compound at 50 (head suffix _50)): 0.4736
Th-T fluorescence, mean of three wells (Fig. 7a) (reading M127, compound at 10 (head suffix _10)): 1.546
Th-T fluorescence, mean of three wells (Fig. 7a) (reading M127, compound at 20 (head suffix _20)): 1.033
Th-T fluorescence, mean of three wells (Fig. 7a) (reading M127, compound at 50 (head suffix _50)): 0.4763
Th-T fluorescence, mean of three wells (Fig. 7a) (reading M128, compound at 10 (head suffix _10)): 1.55
Th-T fluorescence, mean of three wells (Fig. 7a) (reading M128, compound at 20 (head suffix _20)): 1.029
Th-T fluorescence, mean of three wells (Fig. 7a) (reading M128, compound at 50 (head suffix _50)): 0.4748
Th-T fluorescence, mean of three wells (time-course reading M97): 1.044
Th-T fluorescence, mean of three wells (time-course reading M98): 1.046
Th-T fluorescence, mean of three wells (time-course reading M99): 1.04
Th-T fluorescence, mean of three wells (time-course reading M100): 1.04
Th-T fluorescence, mean of three wells (time-course reading M101): 1.043
Th-T fluorescence, mean of three wells (time-course reading M102): 1.042
Th-T fluorescence, mean of three wells (time-course reading M103): 1.041
Th-T fluorescence, mean of three wells (time-course reading M104): 1.042
Th-T fluorescence, mean of three wells (time-course reading M105): 1.041
Th-T fluorescence, mean of three wells (time-course reading M106): 1.044
Th-T fluorescence, mean of three wells (time-course reading M107): 1.043
Th-T fluorescence, mean of three wells (time-course reading M108): 1.038
Th-T fluorescence, mean of three wells (time-course reading M109): 1.039
Th-T fluorescence, mean of three wells (time-course reading M110): 1.044
Th-T fluorescence, mean of three wells (time-course reading M111): 1.042
Th-T fluorescence, mean of three wells (time-course reading M112): 1.039
Th-T fluorescence, mean of three wells (time-course reading M113): 1.042
Th-T fluorescence, mean of three wells (time-course reading M114): 1.037
Th-T fluorescence, mean of three wells (time-course reading M115): 1.041
Th-T fluorescence, mean of three wells (time-course reading M116): 1.037
